Consider five compounds from patent US20210255193A1, “LYSINE REACTIVE PROBES AND USES THEREOF” (The Scripps Research Institute, priority 2017, published 2021).

Holding throughout (assay): competitive isoTOP-ABPP
Holding throughout (format): binding

The target of one experiment is T1, PLIN3 Perilipin-3 (Homo sapiens, UniProt O60664).
T1 construct: isoTOP-ABPP experiments performed in cell lysates (in vitro); endogenous in cells; host or cells: MDA-MB-231 soluble lysate
T1 sequence (O60664 1-434): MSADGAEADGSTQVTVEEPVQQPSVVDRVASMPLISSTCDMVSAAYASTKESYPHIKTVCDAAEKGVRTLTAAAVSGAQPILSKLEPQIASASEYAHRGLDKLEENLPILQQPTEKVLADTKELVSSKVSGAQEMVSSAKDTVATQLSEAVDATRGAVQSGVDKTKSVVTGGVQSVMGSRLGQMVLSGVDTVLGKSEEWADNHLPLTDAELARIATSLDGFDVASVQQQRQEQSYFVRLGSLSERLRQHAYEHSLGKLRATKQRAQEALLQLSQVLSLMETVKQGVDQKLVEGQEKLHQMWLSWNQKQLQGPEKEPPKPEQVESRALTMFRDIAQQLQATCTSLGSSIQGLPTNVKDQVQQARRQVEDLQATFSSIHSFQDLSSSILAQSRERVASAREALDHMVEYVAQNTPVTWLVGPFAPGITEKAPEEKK
How it is done: (§1) In vitro covalent fragment treatment for isoTOP-ABPP. All compounds were made up as solutions in DMSO (100×) and were used at a final concentration of 50 μM for activated esters and 100 μM for guanidinylating agents. For each profiling sample, 0.5 ml of lysate was treated with 5 μl of the 100× compound stock solution or 5 μl of DMSO. Samples were treated with activated esters for
(§2) STP-alkyne labeling and click chemistry. For concentration-dependent reactivity measurements by isoTOP-ABPP, 0.5 ml proteome aliquots were treated at ambient temperature with 1 mM STP-alkyne 1 (5 μl of 100 mM stock in DMSO) and 0.1 mM STP alkyne 1 (5 μl of 10 mM stock in DMSO), respectively. For competitive isoTOP-ABPP, after in vitro fragment treatment (detailed above), the samples were labeled for 1 h at ambient temperature with 0.1 mM STP-alkyne 1 (5 μl of 10 mM stock in DMSO). Samples were conjugated by copper-mediated azide-alkyne cycloaddition (CuAAC) to either the light (1 mM STP-alkyne or fragment treated) or heavy (0.1 mM STP-alkyne or DMSO treated) TEV tags (10 μl of 5 mM stocks in DMSO, final concentration=100 μM) using tris(2-carboxyethyl)phosphine hydrochloride
(§3) R value calculation and processing. The ratios of light and heavy MS1 peaks for each unique peptide were quantified with a CIMAGE software using default parameters (3 MS1 acquisitions per peak and signal to noise threshold set to 2.5). For reactivity measurements by isoTOP-ABPP, the R value was calculated from the ratio of MS1 peak areas, comparing the 1 mM STP alkyne sample (light TEV tag) with the 0.1 mM STP alkyne sample (heavy TEV tag). For competitive isoTOP-ABPP, the R value was calculated from the ratio of MS1 peak areas, comparing the DMSO treated sample (heavy TEV tag) with the compound treated sample (light TEV tag). […] Ratios for unique peptide entries are calculated for each experiment; overlapping peptides with the same modified lysine (for example, different charge states, MudPIT chromatographic steps or tryptic termini) are grouped together and the median ratio is reported as the final ratio (R). The peptide ratios reported by CIMAGE were further filtered to ensure the removal or correction of low-quality ratios in each individual data set. The quality filters applied were the following: removal of half tryptic peptides; for ratios with high standard deviations from the median (90% of the median or above) the lowest ratio was taken instead of the median; removal of peptides with R=20 and only a single MS2 event triggered during the elution of the parent ion; manual annotation of all the peptides with ratios of 20, removing any peptides with low quality elution profiles that remained after the previous curation steps (only done for competitive isoTOP-ABPP).
(§4) Cross-data processing for fragment screening. For compound treated samples, biological replicates of the same condition were averaged, if the standard deviation was below 60% of the mean; otherwise, for lysines with at least one R value <4 for a particular compound, the lowest value of the ratio set was taken. For lysines, where all R values for a particular compound were ≥4, the average was reported. For peptides containing several possible modified lysines, the lysine with the highest number of quantification events was used for analysis and the remaining, redundant peptides were reported as alternative modification sites. Peptides included in the aggregate dataset (those used for further bioinformatics and statistical analyses) were required to have been quantified in 2 experiments for competitive isoTOP-ABPP. Lysines were categorized as liganded, if they had at least one ratio R≥4 (hit fragments). For liganded lysines with R=20 for all liganding events, lysines were required to have been quantified with R=20 in two separate experiments and were further required to have been quantified with R<20 in one additional experiment.

Experiment [1] concerns the target T2, CPOX Coproporphyrinogen-III oxidase, mitochondrial (Homo sapiens, UniProt P36551).
T2 construct: isoTOP-ABPP experiments performed in cell lysates (in vitro); endogenous in cells; host or cells: soluble proteome of human cancer cell lines (MDA-MB-231; Ramos and Jurkat also prepared)
T2 sequence (P36551 111-454): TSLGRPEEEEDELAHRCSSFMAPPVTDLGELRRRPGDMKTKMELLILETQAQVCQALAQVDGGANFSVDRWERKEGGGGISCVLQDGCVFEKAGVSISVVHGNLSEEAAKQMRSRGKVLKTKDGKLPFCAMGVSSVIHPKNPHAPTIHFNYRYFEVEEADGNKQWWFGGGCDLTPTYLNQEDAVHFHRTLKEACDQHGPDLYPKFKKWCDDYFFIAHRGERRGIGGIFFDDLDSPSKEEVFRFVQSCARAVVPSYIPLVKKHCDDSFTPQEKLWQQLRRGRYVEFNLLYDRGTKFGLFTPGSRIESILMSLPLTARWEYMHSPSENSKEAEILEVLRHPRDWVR
How it is done: as §1, §2, §3, §4

Experiment [2] addresses T3, ISOC2 Isochorismatase domain-containing protein 2, mitochondrial (Homo sapiens, UniProt Q96AB3).
T3 construct: isoTOP-ABPP experiments performed in cell lysates (in vitro); endogenous in cells; host or cells: soluble proteome of human cancer cell lines (MDA-MB-231; Ramos and Jurkat also prepared)
T3 sequence (Q96AB3 1-205): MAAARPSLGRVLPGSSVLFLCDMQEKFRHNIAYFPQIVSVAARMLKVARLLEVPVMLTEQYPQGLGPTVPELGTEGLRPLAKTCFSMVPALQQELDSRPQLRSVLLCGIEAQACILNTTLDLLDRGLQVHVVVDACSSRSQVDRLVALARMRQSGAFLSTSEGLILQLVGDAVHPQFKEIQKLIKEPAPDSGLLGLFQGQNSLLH
The procedure: as §1, §2, §3, §4

For the compound `O=C(ON1C(=O)CCC1=O)c1cc(C(F)(F)F)cc(C(F)(F)F)c1` [fragment 46, 3,5-Bis(trifluoromethyl)benzoic acid NHS ester], on PLIN3 Perilipin-3 (50 uM_231_sol_in vitro), the “isoTOP-ABPP ratio, lysine O60664_K257” value was determined as 0.6. The “isoTOP-ABPP ratio, lysine P36551_K404” value in experiment [1] (50 uM_231_sol_in vitro) came out at 1.0. Also, the “isoTOP-ABPP ratio, lysine Q96AB3_K178” value in experiment [2] (50 uM_231_sol_in vitro) came to 1.5.

Regarding `O=C(Oc1c(F)c(F)cc(F)c1F)c1cc(C(F)(F)F)cc(C(F)(F)F)c1` [fragment 48, 2,3,5,6-Tetrafluorophenyl 3,5-bis(trifluoromethyl)benzoate], the “isoTOP-ABPP ratio, lysine O60664_K140” value on PLIN3 Perilipin-3 (50 uM_231_sol_in vitro) turned out to be 1.3. The “isoTOP-ABPP ratio, lysine P36551_K404” value in experiment [1] (50 uM_231_sol_in vitro) came to 1.0. For the same compound, the “isoTOP-ABPP ratio, lysine Q96AB3_K178” value in experiment [2] (50 uM_231_sol_in vitro) turned out to be 0.9.

On to `COC(=O)NC(=NC(=O)OCC1c2ccccc2-c2ccccc21)n1cccn1` [fragment 49, N-Methoxycarbonyl-N′-9-fluorenylmethoxycarbonyl-pyrazole-1-carboxamidine], for which the “isoTOP-ABPP ratio, lysine O60664_K140” value on PLIN3 Perilipin-3 (100 uM_231_sol_in vitro) is given as 3.0. Further, the “isoTOP-ABPP ratio, lysine P36551_K404” value in experiment [1] (100 uM_231_sol_in vitro) was determined as 2.5. Besides, the “isoTOP-ABPP ratio, lysine Q96AB3_K178” value in experiment [2] (100 uM_231_sol_in vitro) came to 1.1.

Consider `CC(C)(C)OC(=O)N=C(NC(=O)OC(C)(C)C)n1cccn1` [fragment 50, reference compound], for which the “isoTOP-ABPP ratio, lysine O60664_K140” value on PLIN3 Perilipin-3 (100 uM_231_sol_in vitro) is on record as 1.8. In addition, the “isoTOP-ABPP ratio, lysine P36551_K404” value in experiment [1] (100 uM_231_sol_in vitro) was 1.8. For the same compound, the “isoTOP-ABPP ratio, lysine Q96AB3_K178” value in experiment [2] (100 uM_231_sol_in vitro) came out at 1.1.

Turning to `NC(=O)c1cc(C(F)(F)F)cc(C(F)(F)F)c1` [fragment 51, reference compound], the “isoTOP-ABPP ratio, lysine O60664_K257” value at PLIN3 Perilipin-3 (50 uM_231_sol_in vitro) is recorded as 1.0. For the same compound, the “isoTOP-ABPP ratio, lysine P36551_K404” value in experiment [1] (50 uM_231_sol_in vitro) worked out at 0.9. Further, the “isoTOP-ABPP ratio, lysine Q96AB3_K178” value in experiment [2] (50 uM_231_sol_in vitro) was determined as 0.9.
